Assay [1] deals with GTPase KRas (Homo sapiens), P01116 [UNDEFINED MUTATION]. Description: Inhibition of KRas mutant in human HCT116 cells […] assessed as cell viability by measuring ATP at 2 uM relative to control. In kind it is cell-based.
Assay [2] shares this test system. The assay is described as follows: Inhibition of KRas mutant in human HCT116 cells […] assessed as cell viability by measuring ATP at 0.2 uM relative to control. Format: cell-based.
The test system is the same in assay [3]. Description: Inhibition of KRas mutant in human SW480 cells assessed as cell viability by measuring ATP at 0.2 uM relative to control. Format: cell-based.
The test system is the same in assay [4]. The assay is described as follows: Inhibition of KRas mutant in human HCT116 cells assessed as cell viability by measuring ATP at 2 uM relative to control. Format: cell-based.
The test system is the same in assay [5]. Description: Inhibition of KRas mutant in human HCT116 cells assessed as cell viability by measuring ATP at 20 uM relative to control. Format: cell-based.
Assay [6] shares this test system. The assay is described as follows: Inhibition of KRas mutant in human SW480 cells assessed as cell viability by measuring ATP at 20 uM relative to control. Format: cell-based.
Assay [7] shares this test system. Description: Inhibition of KRas mutant in human DLD1 cells assessed as cell viability by measuring ATP at 20 uM relative to control. Format: cell-based.
For assay [8] the test system is unchanged. Description: Inhibition of KRas mutant in human HCT116 cells assessed as cell viability by measuring ATP at 0.2 uM relative to control. In kind it is cell-based.
Assay [9] shares this test system. The assay is described as follows: Inhibition of KRas mutant in human SW480 cells assessed as cell viability by measuring ATP at 2 uM relative to control. Format: cell-based.
For assay [10] the test system is unchanged. The assay is described as follows: Inhibition of KRas mutant in human DLD1 cells assessed as cell viability by measuring ATP at 2 uM relative to control. In kind it is cell-based.
For assay [11] the test system is unchanged. Description: Inhibition of KRas mutant in human HCT116 cells […] assessed as cell viability by measuring ATP at 20 uM relative to control. Format: cell-based.
Assay [12] deals with Proprotein convertase subtilisin/kexin type 9 (Homo sapiens) (UniProt Q8NBP7). Description: Inhibition of human PCSK9 at 40 uM relative to control.
Assay [13] addresses Microtubule-associated protein tau (Homo sapiens) (UniProt P10636). Description: Inhibition of human Tau at 40 uM relative to control.
In assay [14] the target is T1, Angiopoietin-like protein 8 (Homo sapiens) (UniProt Q6UXH0).
T1 sequence (whole entry): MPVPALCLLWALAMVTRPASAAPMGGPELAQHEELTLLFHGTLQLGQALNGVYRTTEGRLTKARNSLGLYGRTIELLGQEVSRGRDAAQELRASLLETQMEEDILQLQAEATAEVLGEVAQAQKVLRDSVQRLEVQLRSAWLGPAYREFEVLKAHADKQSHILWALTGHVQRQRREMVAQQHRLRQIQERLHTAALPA
The assay is described as follows: Inhibition of human Angptl8 at 40 uM relative to control.

The target in assay [15] is Apolipoprotein C-III (Homo sapiens) (UniProt P02656). Description: Inhibition of human APOC3 at 40 uM relative to control.
Assay [16] has as its system GTPase KRas (Homo sapiens), P01116 [UNDEFINED MUTATION]. The assay is described as follows: Inhibition of KRas mutant in human DLD1 cells assessed as cell viability by measuring ATP at 0.2 uM relative to control. Format: cell-based.
Assay [17] has the same test system. The assay is described as follows: Inhibition of KRas mutant in human DLD1 cells assessed as cell viability by measuring ATP. Format: cell-based.
The test system of assay [18] is HeLa. The assay is described as follows: Cell cycle arrest in human HeLa cells assessed as effect on mitotic index incubated for 21 hrs by propidium iodide based flow cytometry. Format: functional.
A short description of assay [19]: Activation of wnt pathway in mouse C2C12 cells assessed as increase in alkaline phosphatase activity. Format: cell-based.
Assay [20] concerns HeLa. The assay is described as follows: Cell cycle arrest in human HeLa cells assessed as effect on 4N stage incubated for 21 hrs by propidium iodide based flow cytometry. Format: functional.
Assay [21] has as its system HeLa. Description: Cell cycle arrest in human HeLa cells assessed as effect on 2N stage incubated for 21 hrs by propidium iodide based flow cytometry. In kind it is functional.
For assay [22], the system named is GTPase KRas (Homo sapiens), P01116 [UNDEFINED MUTATION]. The assay is described as follows: Inhibition of KRas mutant in human SW480 cells assessed as cell viability by measuring ATP. Format: cell-based.
Assay [23] deals with HeLa. The assay is described as follows: Cell cycle arrest in human HeLa cells assessed as effect on S phase incubated for 21 hrs by propidium iodide based flow cytometry. In kind it is functional.
Assay [24] relates to HeLa. Description: Cell cycle arrest in human HeLa cells incubated for 21 hrs by propidium iodide based flow cytometry. In kind it is functional.
Assay [25] deals with GTPase KRas (Homo sapiens), P01116 [UNDEFINED MUTATION]. The assay is described as follows: Inhibition of KRas mutant in human HCT116 cells assessed as cell viability by measuring ATP. Format: cell-based.
The test system of assay [26] is HeLa. Description: Cell cycle arrest in human HeLa cells assessed as effect on G1 phase incubated for 21 hrs by propidium iodide based flow cytometry. In kind it is functional.
Assay [27] relates to GTPase KRas (Homo sapiens), P01116 [UNDEFINED MUTATION]. The assay is described as follows: Inhibition of KRas mutant in human HCT116 cells […] assessed as cell viability by measuring ATP. Format: cell-based.
In assay [28] the target is Sodium channel protein type 9 subunit alpha (Homo sapiens) (UniProt Q15858). Description: Inhibition of human Nav1.7 at 40 uM relative to control.
The nature of assay [29]: Activation of wnt pathway in mouse C2C12 cells assessed as increase in beta-catenin activity. Format: cell-based.

Chain of Microtubule-associated protein tau (Homo sapiens) (P10636 whole entry): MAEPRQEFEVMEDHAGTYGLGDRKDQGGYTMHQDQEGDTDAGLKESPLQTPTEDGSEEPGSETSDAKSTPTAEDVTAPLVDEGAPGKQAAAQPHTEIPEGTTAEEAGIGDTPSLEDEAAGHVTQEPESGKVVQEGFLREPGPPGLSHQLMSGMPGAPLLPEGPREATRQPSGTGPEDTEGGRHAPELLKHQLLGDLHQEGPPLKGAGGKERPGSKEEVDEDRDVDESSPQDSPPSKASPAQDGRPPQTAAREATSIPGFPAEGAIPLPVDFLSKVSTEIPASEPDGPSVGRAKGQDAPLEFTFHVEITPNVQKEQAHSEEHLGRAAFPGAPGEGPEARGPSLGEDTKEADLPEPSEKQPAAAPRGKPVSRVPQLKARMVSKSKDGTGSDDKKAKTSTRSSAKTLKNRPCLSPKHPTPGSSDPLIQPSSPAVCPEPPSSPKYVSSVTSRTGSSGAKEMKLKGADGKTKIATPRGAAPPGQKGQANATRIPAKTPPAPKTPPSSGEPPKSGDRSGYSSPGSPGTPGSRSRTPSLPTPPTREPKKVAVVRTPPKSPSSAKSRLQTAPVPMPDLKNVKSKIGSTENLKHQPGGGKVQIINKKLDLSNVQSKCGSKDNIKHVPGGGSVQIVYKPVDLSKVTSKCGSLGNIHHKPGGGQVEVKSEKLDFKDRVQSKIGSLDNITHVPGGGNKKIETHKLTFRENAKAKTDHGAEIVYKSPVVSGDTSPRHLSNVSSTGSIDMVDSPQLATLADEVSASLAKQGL
Chain of GTPase KRas (Homo sapiens), P01116 [UNDEFINED MUTATION] (P01116 whole entry, looked up, change not shown): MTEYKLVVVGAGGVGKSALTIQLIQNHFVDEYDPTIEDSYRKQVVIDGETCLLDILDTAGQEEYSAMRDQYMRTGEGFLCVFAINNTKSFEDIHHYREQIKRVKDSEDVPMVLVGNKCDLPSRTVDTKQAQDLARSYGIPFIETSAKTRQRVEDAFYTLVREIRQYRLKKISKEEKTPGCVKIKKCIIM
Chain of Apolipoprotein C-III (Homo sapiens) (P02656 whole entry): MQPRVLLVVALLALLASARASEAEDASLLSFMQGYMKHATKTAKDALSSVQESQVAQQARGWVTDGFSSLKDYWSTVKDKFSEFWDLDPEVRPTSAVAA
Chain of Sodium channel protein type 9 subunit alpha (Homo sapiens) (Q15858 whole entry, looked up): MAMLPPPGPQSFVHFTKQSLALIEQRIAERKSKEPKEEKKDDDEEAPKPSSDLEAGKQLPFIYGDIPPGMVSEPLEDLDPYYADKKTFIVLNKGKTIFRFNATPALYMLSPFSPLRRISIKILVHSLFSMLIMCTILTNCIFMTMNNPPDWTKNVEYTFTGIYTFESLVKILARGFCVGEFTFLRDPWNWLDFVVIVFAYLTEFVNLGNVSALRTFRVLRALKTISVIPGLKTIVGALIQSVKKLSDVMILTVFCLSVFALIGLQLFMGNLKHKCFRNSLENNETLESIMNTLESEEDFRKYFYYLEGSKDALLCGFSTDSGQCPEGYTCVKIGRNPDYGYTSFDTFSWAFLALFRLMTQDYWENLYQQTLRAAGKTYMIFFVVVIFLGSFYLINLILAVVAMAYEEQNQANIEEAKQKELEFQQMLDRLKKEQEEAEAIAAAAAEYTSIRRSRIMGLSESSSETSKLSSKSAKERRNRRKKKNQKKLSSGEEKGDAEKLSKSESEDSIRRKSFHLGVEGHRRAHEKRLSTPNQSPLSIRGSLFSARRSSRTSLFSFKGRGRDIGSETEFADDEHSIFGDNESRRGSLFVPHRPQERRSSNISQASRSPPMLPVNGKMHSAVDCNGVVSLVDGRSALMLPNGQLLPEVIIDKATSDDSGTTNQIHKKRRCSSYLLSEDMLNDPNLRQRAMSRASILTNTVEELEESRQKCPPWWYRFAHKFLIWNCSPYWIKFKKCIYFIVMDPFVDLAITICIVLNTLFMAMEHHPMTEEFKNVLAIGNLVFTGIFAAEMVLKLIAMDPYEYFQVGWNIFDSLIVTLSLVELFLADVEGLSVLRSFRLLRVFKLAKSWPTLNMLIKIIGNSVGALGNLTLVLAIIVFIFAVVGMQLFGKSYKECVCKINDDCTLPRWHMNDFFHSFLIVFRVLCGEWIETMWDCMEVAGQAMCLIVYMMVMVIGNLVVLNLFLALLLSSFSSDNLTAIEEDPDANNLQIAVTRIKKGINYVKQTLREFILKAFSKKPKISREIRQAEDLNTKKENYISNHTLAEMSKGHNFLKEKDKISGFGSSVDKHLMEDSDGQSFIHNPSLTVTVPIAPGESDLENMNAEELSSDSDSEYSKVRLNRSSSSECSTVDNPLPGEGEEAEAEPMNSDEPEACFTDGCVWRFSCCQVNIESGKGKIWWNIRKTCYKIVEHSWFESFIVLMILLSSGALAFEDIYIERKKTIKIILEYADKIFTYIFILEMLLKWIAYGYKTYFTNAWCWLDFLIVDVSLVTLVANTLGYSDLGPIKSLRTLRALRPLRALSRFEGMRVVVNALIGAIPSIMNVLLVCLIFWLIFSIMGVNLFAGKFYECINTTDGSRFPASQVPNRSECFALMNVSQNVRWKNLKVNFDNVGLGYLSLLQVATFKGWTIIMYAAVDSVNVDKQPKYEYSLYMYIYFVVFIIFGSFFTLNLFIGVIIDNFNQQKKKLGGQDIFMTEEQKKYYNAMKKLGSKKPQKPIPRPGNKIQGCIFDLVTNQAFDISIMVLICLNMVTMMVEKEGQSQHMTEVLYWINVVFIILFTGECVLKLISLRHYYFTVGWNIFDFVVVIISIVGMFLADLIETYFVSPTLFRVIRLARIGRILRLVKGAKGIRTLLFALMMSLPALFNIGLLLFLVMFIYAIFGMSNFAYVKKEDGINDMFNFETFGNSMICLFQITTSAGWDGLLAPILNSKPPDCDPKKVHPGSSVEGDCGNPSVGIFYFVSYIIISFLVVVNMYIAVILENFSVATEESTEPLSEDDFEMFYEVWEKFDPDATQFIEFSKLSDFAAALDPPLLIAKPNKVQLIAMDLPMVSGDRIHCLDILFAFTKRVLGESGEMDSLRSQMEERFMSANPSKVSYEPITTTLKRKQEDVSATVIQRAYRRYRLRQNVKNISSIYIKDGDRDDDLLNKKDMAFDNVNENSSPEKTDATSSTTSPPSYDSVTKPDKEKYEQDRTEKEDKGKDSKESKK
Chain of Proprotein convertase subtilisin/kexin type 9 (Homo sapiens) (Q8NBP7 31-152 limits assumed): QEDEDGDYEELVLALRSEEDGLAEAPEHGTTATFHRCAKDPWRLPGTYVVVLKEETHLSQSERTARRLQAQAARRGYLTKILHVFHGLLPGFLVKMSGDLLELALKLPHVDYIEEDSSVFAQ
Chain of Proprotein convertase subtilisin/kexin type 9 (Homo sapiens) (Q8NBP7 153-692 limits assumed): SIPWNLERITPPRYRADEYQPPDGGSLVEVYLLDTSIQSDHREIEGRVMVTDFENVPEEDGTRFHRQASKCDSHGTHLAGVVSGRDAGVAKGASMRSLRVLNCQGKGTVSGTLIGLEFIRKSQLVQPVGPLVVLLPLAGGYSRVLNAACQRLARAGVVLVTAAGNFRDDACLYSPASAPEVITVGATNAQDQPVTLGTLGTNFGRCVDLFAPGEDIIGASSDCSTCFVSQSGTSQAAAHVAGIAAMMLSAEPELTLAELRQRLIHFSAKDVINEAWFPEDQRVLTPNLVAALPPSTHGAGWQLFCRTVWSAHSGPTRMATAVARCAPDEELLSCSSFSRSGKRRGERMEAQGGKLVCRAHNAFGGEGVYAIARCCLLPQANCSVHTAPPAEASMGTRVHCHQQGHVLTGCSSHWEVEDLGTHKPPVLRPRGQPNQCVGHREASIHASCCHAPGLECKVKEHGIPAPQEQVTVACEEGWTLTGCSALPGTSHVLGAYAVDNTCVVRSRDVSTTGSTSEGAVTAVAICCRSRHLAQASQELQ

`CCCCCc1c2c(c(C)c3c1Oc1ccccc1O3)C(=O)OC2`: the inhibition in assay [1] amounted to 28%; in assay [2], 44%; in assay [3], 11%; in assay [4], 12%; in [5], 35%; in assay [6], 40%. Moreover, the inhibition in [7] was 40%; in [8], -9%; in assay [9], 21%; in [10] it was 17%; in assay [11] it was 31%.
For the compound `CCCCc1c2c(c(C)c3c1Oc1ccccc1O3)C(=O)OC2`, the inhibition in [1] amounted to 0.4%; in assay [3], 12%; in assay [4], 7%; in [5], 38%; in [12], 15%; in [6], 14%. Further, the inhibition in assay [7] came out at 41%; in [13] it was 8%; in assay [14] it was 15%; in assay [15], 34%; in assay [8], 39%; in assay [9] it was 14%. The inhibition in assay [10] turned out to be 6%; in assay [11] it was 2%.
On to `Cc1c2c(c(CCCCBr)c3c1C(=O)OC3)Oc1ccccc1O2`, for which the inhibition was 20% in assay [1]; 12% in [2]; 0.4% in assay [16]; 9.5% in assay [4]; 108% in [5]; 40% in assay [12]. The inhibition in assay [6] stood at 55%; in assay [7], 20%; in assay [13], 35%; in [14], 37%; in [15], 17%; in [8] it was 2%. Besides, the inhibition stood at 4.4% in [9], 0.4% in assay [10] and 28% in assay [11].
Take `CCCCCc1c2c(c(C)c3c1C(=O)OC3)Oc1ccccc1O2`: the inhibition entry was “Dose-dependent effect” in assay [17]; 59% in assay [1]; 5% in [2]; 20% in [3]; 60% in assay [16]; “Dose-dependent effect” in assay [22]. The inhibition in [4] is 62%; in assay [5] it was 89%; in [12] it was 69%; in assay [25], “Dose-dependent effect”; in assay [6], 86%; in assay [7], 120%. The inhibition in [13] was 88%; in assay [14], 89%; in [27] it was “Dose-dependent effect”; in [15], 78%; in assay [8] it was 20%; in assay [28], 74%. Further, the inhibition in assay [9] stood at 64%; in [10], 63%; in assay [11], 66%. The EC50 in the assay on HeLa [18] is 1.4 µM; in [19], 6.3 µM; in the assay with HeLa [20], 1.6 µM; in the assay on HeLa [26] it was over 10 µM. Further, the IC50 in the assay on HeLa [21] is 1.8 µM; in the assay with HeLa [23] it was over 10 µM; in the assay on HeLa [24], 1 µM.
In the case of `CCCCCCc1c2c(c(C)c3c1Oc1ccccc1O3)C(=O)SC2`, the inhibition in assay [1] was -5.6%; in assay [3] it was 10%; in assay [16], -10%; in assay [4] it was 2.9%; in assay [5], 13%; in assay [12] it was -4%. Further, the inhibition in [6] was 21%; in assay [7], 14%; in assay [13], 30%; in assay [14], 27%; in assay [15] it was 7%; in [8], -10%. Also, the inhibition in assay [28] is -2%; in [9], 10%; in [10] it was 6%; in assay [11], 3.4%.
On to `CCCCCCc1c2c(c(C)c3c1Oc1ccccc1O3)C(=O)OC2`, for which the inhibition in [1] was found to be 10%; in [2] it was 26%; in assay [3], 16%; in assay [16], 29%; in [4], 7%; in assay [5] it was 15%. In addition, the inhibition in [12] was -7%; in [6], 12%; in assay [13] it was 11%; in assay [14], 24%; in [15], 17%; in [8], -3%. Also, the inhibition is -9% in assay [28], 18% in [9], 49% in [10] and 2% in [11].
As to `CCCCCc1c2c(c(C)c3c1Oc1cc(OC)ccc1O3)C(=O)OC2`, the EC50 (with HeLa [18]; in [19]; in the assay with HeLa [20]; in the assay with HeLa [26]; in assay [29]) was over 10 µM in each case. Besides, the IC50 with HeLa [21] and with HeLa [23] was over 10 µM throughout. For the same compound, the inhibition in [5] was 26%; in assay [12] it was -7%; in assay [7], -3.9%; in [13], 23%; in assay [14], 34%; in [15], 12%.
Take `CCCCCCc1c2c(c(C)c3c1C(=O)SC3)Oc1ccccc1O2`: the EC50 (in the assay on HeLa [18]; in [19]; in the assay with HeLa [20]; in the assay on HeLa [26]; in assay [29]) was over 10 µM throughout. Besides, the inhibition in assay [1] was -4%; in assay [3] it was 13%; in assay [16], -9%; in assay [4], 10%; in assay [5], 40%; in assay [12] it was 30%. In addition, the inhibition in [6] was 22%; in assay [7] it was 90%; in assay [13], 20%; in assay [14], 31%; in assay [15] it was 21%; in [28] it was -10%. The inhibition in [9] is 9%; in assay [10], 7%; in assay [11], 18%. For the same compound, the IC50 in the assay with HeLa [21], in the assay on HeLa [23] and in the assay with HeLa [24] was over 10 µM in each case.
With `CCCCCc1c2c(c(C)c3c1C(=O)OC3)Oc1ccc(OC)cc1O2`, the EC50 (with HeLa [18]; in [19]; in the assay with HeLa [20]; in the assay on HeLa [26]; in assay [29]) was over 10 µM each time. Also, the inhibition is 8% in assay [1]; 52% in assay [2]; 15% in assay [3]; 7.9% in assay [4]; 40% in assay [5]; 42% in assay [12]. In addition, the inhibition in assay [6] is 19%; in assay [7], 73%; in [13] it was 60%; in [14], 59%; in assay [15] it was 38%; in [28] it was 22%. Moreover, the results for the inhibition in [9], in assay [10] and in [11] were 16%, 16% and 6%, respectively. Besides, the IC50 with HeLa [21] and in the assay on HeLa [23] was over 10 µM each time.

(Values after ChEMBL document CHEMBL4312009, “Multigram scale synthesis of polycyclic lactones and evaluation of antitumor and other biological properties” (Eur J Med Chem, 2020).)
